Laboratory results reported in PubChem BioAssay (NCI).
“And” between values parts separate entries of the source, which are not always exact repeats. Identical values can stand only once.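 Cultured in 96-well plates, cells were exposed to test compound for 48 hours across five concentrations. GI50 is the concentration that inhibits growth by half. TGI: concentration producing complete growth inhibition.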

Key:
Assay in all cases: NCI-60 cell line screen, 48 h
[1] = tested on: 786-0 renal
[2] = tested on: A498 renal
[3] = tested on: A549 NSCLC
[4] = tested on: ACHN renal
[5] = tested on: BT-549 breast
[6] = tested on: CAKI-1 renal
[7] = tested on: CCRF-CEM leukemia
[8] = tested on: COLO 205 colon
[9] = tested on: DLD-1 colon
[10] = tested on: DMS 114 small cell lung
[11] = tested on: DMS 273 small cell lung
[12] = tested on: DU-145 prostate
[13] = tested on: EKVX NSCLC
[14] = tested on: HCC-2998 colon
[15] = tested on: HCT-116 colon
[16] = tested on: HCT-15 colon
[17] = tested on: HOP-18 NSCLC
[18] = tested on: HOP-62 NSCLC
[19] = tested on: HOP-92 NSCLC
[20] = tested on: HT29 colon
[21] = tested on: IGROV1 ovarian
[22] = tested on: K-562 leukemia
[23] = tested on: KM12 colon
[24] = tested on: KM20L2 colon
[25] = tested on: LOX IMVI melanoma
[26] = tested on: LXFL 529 NSCLC
[27] = tested on: M14 melanoma
[28] = tested on: M19-MEL melanoma
[29] = tested on: MALME-3M melanoma
[30] = tested on: MCF7 breast
[31] = tested on: MDA-MB-231 breast
[32] = tested on: MDA-MB-435
[33] = tested on: MDA-N
[34] = tested on: MOLT-4 leukemia
[35] = tested on: NCI-H226 lung
[36] = tested on: NCI-H23 lung
[37] = tested on: NCI-H460 lung
[38] = tested on: NCI-H522 lung
[39] = tested on: NCI/ADR-RES ovarian
[40] = tested on: OVCAR-3 ovarian
[41] = tested on: OVCAR-4 ovarian
[42] = tested on: OVCAR-5 ovarian
[43] = tested on: OVCAR-8 ovarian
[44] = tested on: PC-3 prostate
[45] = tested on: RPMI-8226 leukemia
[46] = tested on: RXF 393 renal
[47] = tested on: SF-268 CNS
[48] = tested on: SF-295 CNS
[49] = tested on: SF-539 CNS
[50] = tested on: SK-MEL-2 melanoma
[51] = tested on: SK-MEL-28 melanoma
[52] = tested on: SK-MEL-5 melanoma
[53] = tested on: SK-OV-3 ovarian
[54] = tested on: SN12C renal
[55] = tested on: SNB-19 CNS
[56] = tested on: SNB-75 CNS
[57] = tested on: SNB-78 CNS
[58] = tested on: SR leukemia
[59] = tested on: SW-620 colon
[60] = tested on: TK-10 renal
[61] = tested on: U251 CNS
[62] = tested on: UACC-257 melanoma
[63] = tested on: UACC-62 melanoma
[64] = tested on: UO-31 renal
[65] = tested on: XF 498 CNS

With `CN[C@@H]1C[C@H]2O[C@@](C)([C@@H]1OC)n1c3ccccc3c3c4c(c5c6ccccc6n2c5c31)C(=O)N[C@@H]4O` the TGI [1] was 172 nM, the GI50 [2] was 5.3 nM and the TGI [2] was 23.2 nM and 25.7 nM. For the same compound, the GI50 [3] was 32.8 nM, the TGI [3] was 300 nM and 2870 nM and the GI50 [4] was 5.26 nM and < 15.1 nM. The GI50 [5] was 19.3 nM, the TGI [5] was 300 nM and 627 nM and the TGI [6] was 22.9 nM. For the same compound, the TGI [7] was 1390 nM, the TGI [8] was 691 nM and the TGI [9] was 15000 nM. It also gave a TGI [10] of 1580 nM, a TGI [11] of 637 nM and a TGI [12] of 1160 nM. The TGI [13] was 232 nM and 2120 nM, the GI50 [14] was 53.4 nM and the TGI [14] was 300 nM and 2690 nM. For the same compound, the TGI [15] was 2420 nM, the GI50 [16] was 55.6 nM and the TGI [16] was 300 nM and 1330 nM. For the same compound, the TGI [17] was 268 nM, the GI50 [18] was 40.1 nM and the TGI [18] was 170 nM and 334 nM. The GI50 [19] was under 20.5 nM, the GI50 [20] was 47.5 nM and the GI50 [21] was 12.9 nM and 46.1 nM. The TGI [21] was 61.7 nM and 341 nM, the GI50 [22] was 162 nM and the GI50 [23] was 18.5 nM. For the same compound, the TGI [24] was 2530 nM, the TGI [25] was 406 nM and the TGI [26] was 549 nM. For the same compound, the GI50 [27] was 31.1 nM, the TGI [27] was 300 nM and 1250 nM and the TGI [28] was 4990 nM. For the same compound, the GI50 [29] was 15.4 nM, the TGI [29] was 58.9 nM and 461 nM and the TGI [30] was 300 nM and 2510 nM. The TGI [31] was 202 nM, the GI50 [32] was 47.8 nM and the TGI [32] was 300 nM and 1880 nM. The TGI [33] was 1600 nM, the GI50 [34] was 22.8 nM and the TGI [34] was 98.1 nM and 654 nM. For the same compound, the GI50 [35] was 49.2 nM, the TGI [35] was 300 nM and 477 nM and the TGI [36] was 1530 nM. For the same compound, the TGI [37] was 300 nM and 1470 nM, the TGI [38] was 197 nM and 382 nM and the GI50 [39] was 105 nM. For the same compound, the TGI [39] was 300 nM and 420 nM, the TGI [40] was 300 nM and 722 nM and the GI50 [41] was 28.6 nM. The GI50 [42] was 22.6 nM, the TGI [42] was 298 nM and 240 nM and the GI50 [43] was 35.4 nM. The TGI [43] was 164 nM and 719 nM, the TGI [44] was 258 nM and 130 nM and the GI50 [45] was 41.9 nM. The GI50 [46] was 9.55 nM, the TGI [46] was 34.5 nM and < 21.9 nM and the GI50 [47] was 8 nM. For the same compound, the GI50 [48] was 36.7 nM, the TGI [48] was 300 nM and 204 nM and the GI50 [49] was 19.6 nM. The TGI [49] was 31.4 nM and 57.7 nM, the GI50 [50] was 34.8 nM and the TGI [50] was 245 nM and 123 nM. The TGI [51] was 2310 nM, the TGI [52] was 766 nM and the GI50 [53] was 46.7 nM. The TGI [53] was 187 nM and 280 nM, the TGI [54] was 6770 nM and the GI50 [55] was 50.2 nM. For the same compound, the TGI [55] was 161 nM and 770 nM, the GI50 [56] was 3.22 nM and the TGI [56] was 14.3 nM and 27.1 nM. For the same compound, the TGI [57] was 225 nM, the TGI [58] was 833 nM and the GI50 [59] was 147 nM. The TGI [59] was 300 nM and 1880 nM, the GI50 [60] was 19.5 nM and 21.1 nM and the TGI [60] was 300 nM and 91.4 nM. The TGI [61] was 300 nM and 333 nM, the GI50 [62] was 84.8 nM and the TGI [62] was 300 nM and 1900 nM. For the same compound, the TGI [63] was 908 nM, the TGI [64] was 64.5 nM and the TGI [65] was 463 nM.
